Assay results reported in US9573907B2, “2, 4-pyrimidine derivatives and use thereof” (SNU R&DB FOUNDATION, priority 2009, dated 2017).

Legend:
gp96 V706A/L707A = target: T1, gp96 V706A/L707A (Homo sapiens, UniProt P14625, L711A/V710A); test: Surface plasmon resonance, GPM1 binding to gp96 mutant V706A/L707A
T1 construct: made in house; host or cells: Escherichia coli BL21 (DE3)
Description: Human gp96 was expressed as His tag fusion protein in Escherichia coli BL21 (DE3) and purified by nickel affinity chromatography. His-tagged human gp96 was immobilized onto CM5 sensor chips using standard amine coupling2. PBS was used as a running buffer. The carboxymethyl dextran surface within one side of the flow cell was activated with a 7-min injection of a 1:1 ratio of 0.4M EDC and 0.1M NHS. The protein was coupled to the surface with a 7-min injection of gp96 diluted in 10 mM sodium acetate, pH 3.7. Remaining activated groups were blocked with a 7-min injection of 1.0M ethanolamine, pH 8.5. GPM1 compound was dissolved directly in the PBS running buffer containing 1% DMSO and injected at a flow rate of 20 μl/min at 25° C. and the binding was determined by the change in resonance units (RU). The compound concentration varied from 10 nM to 25 μM and each concentration was tested at least three times. All of the bound complexes dissociated back to baseline within a reasonable time frame. Therefore, no regeneration was required. Sensorgram was processed by subtracting the binding response recorded from the control surface, followed by subtracting an average of the buffer blank injections from the reaction spot. To determine kinetic rate constants, all data sets were fit to a simple 1:1 binding with drifting baseline model using BIAevaluation program.
The present inventors compared the dose-dependent effect of GPM1 and NC1 on the interaction of gp96 and AIMP1 using ELISA. […] The present inventors monitored the binding kinetics of GPM1 to gp96 or AIMP1 by surface plasmon resonance (SPR) using BIAcore 3000. […] To further define the GPM1 binding region of gp96 (Han, J. M., Park, S. G., Liu, B., Park, B. J., Kim, J. Y., Jin, C. H., Song, Y. W., Li, Z. & Kim, S. Am. J. Pathol. 170, 2042-2054 (2007)), the present inventors introduced point mutations at L707, V706, V712, L713, F714, Y731 and M738 that are located within AIMP1 binding region of gp96 and monitored how the mutations at these sites would affect the binding of GPM1 to gp96 using SPR method.

[1] = target: T2, interaction of gp96 with AIMP1 (Mus musculus, UniProt P08113); test: Co-immunoprecipitation of gp96 with AIMP1 in RAW24.7 cells; format: cell-based; conditions: 10 μM, 24 h
T2 construct: endogenous in cells; host or cells: RAW24.7 (RAW264.7) cells
T2 sequence (P08113 22-802): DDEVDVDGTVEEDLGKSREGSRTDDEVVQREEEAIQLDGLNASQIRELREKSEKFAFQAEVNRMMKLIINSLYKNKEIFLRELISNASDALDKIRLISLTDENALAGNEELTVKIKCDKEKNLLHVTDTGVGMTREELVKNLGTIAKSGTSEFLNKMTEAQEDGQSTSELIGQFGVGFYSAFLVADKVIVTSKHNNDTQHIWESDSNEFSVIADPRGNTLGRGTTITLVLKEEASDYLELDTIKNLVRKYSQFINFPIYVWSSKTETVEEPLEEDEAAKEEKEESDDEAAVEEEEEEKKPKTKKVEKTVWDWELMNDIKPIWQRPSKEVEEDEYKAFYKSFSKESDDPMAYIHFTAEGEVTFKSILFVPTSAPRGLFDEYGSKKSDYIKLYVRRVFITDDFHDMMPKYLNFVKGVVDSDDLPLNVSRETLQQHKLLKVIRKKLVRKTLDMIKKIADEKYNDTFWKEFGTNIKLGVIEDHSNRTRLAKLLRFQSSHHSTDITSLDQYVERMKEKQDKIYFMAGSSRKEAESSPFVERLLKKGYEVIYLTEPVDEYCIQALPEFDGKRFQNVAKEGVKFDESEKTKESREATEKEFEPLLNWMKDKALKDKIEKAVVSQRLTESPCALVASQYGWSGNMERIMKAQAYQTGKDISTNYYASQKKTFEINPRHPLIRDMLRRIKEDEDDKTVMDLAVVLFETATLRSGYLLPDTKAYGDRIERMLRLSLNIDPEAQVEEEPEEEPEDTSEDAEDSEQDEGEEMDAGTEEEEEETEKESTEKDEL
Description: (§1) FIGS. 1 to 9 represent suppression of cell surface gp96 by GPM1 reduces DC maturation and B220^+ population in gp96tm transgenic mice. (FIG. 1) Chemical structure of GPM1 (Formula 2) and negative control (NC1, Formula 16) used in this study. (FIG. 2) The dose-dependent effect of GPM1 or NC1 on the AIMP1-gp96 interaction using ELISA method as described. The indicated concentrations of the two compounds and biotin-conjugated murine gp96 were added to AIMP1 coated on the surface of microtiter wells, and gp96 bound to AIMP1 was detected with strepavidin-conjugated peroxidase. (FIG. 3) The binding of GPM1 to gp96 was examined by surface plasmon resonance (SPR). GPM1 at the indicated concentrations was injected to immobilized gp96 and the binding was measured using Biacore 3000. The response data were processed using data from a reference surface and buffer injections. Each concentration was tested in triplicate. (FIG. 4) RAW24.7 cells were treated with 10 μM GPM1 for 24 h. Cell lysates were immunoprecipitated with control IgG or anti-gp96 antibody and the immunoprecipitated proteins were immunoblotted with anti-KDELR1, antiAIMP1 and gp96 antibodies. WCL means whole cell lysate. […] TNFα secreted from BMDCs was quantified by ELISA. […]

[2] = test system: cell surface gp96 of splenocytes isolated from C57BL/6 mice; test: Flow cytometry of cell surface gp96 on splenocytes; format: cell-based; conditions: 10 μM, 24 h
Description: as §1

T1 sequence (P14625 22-803 V710A/L711A): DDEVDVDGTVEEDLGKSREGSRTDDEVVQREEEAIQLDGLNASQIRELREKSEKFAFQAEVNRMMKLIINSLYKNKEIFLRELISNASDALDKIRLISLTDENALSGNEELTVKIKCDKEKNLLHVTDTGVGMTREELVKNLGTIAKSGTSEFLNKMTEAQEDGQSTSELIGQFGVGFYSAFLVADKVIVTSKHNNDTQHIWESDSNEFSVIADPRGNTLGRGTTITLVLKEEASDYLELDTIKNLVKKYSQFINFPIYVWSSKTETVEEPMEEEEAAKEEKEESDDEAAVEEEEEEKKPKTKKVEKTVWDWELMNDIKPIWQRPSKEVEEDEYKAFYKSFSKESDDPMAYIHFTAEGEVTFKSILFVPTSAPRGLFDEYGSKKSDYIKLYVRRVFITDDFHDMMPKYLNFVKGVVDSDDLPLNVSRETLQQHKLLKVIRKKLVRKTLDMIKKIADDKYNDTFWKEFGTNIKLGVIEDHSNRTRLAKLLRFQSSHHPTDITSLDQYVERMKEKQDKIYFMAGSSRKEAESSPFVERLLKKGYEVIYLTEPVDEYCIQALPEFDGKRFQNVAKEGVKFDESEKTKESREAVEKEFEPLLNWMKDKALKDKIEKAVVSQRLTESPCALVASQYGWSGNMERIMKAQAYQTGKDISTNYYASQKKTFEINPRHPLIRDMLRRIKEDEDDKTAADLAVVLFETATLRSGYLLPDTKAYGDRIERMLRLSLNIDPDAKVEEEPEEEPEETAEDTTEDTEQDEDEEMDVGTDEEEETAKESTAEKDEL

## COC(=O)[C@@H](Oc1nc(OC)cc(OC)n1)C(C)C [GPM1, (S)-methyl 2-(4,6-dimethoxypyrimidin-2-yloxy)-3-methylbutanoate]
gp96 V706A/L707A
  Kd: 0.0886 µM
  koff (dissociation rate constant): 0.0102 s⁻¹
gp96 V706A/L707A; read-out: Ka
  kon: 115000 M⁻¹ s⁻¹
[1]
  interaction of gp96 with AIMP1: decreased
[2]
  surface gp96 of mouse splenocytes: decreased
